The results in this text go back to US20050148042A1, “Hybrid phosphoinositide phospholipids: compositions and uses” (priority 2002, published 2005).

One assay deals with T1, GST-PLC δ1-PH (Homo sapiens, UniProt P51178).
T1 construct: made in house; host or cells: E. coli
T1 sequence (P51178 21-130 limits assumed): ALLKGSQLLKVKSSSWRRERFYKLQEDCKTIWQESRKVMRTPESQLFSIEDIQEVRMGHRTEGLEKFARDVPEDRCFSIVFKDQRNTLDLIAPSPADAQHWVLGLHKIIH
In words: Protein-overlay binding to lipids spotted onto nitrocellulose. Particulars: 200 pmol to 6 pmol spotted onto nitrocellulose. From the text:
In this Example, immobilized Pea-PIPns are readily and specifically recognized by lipid recognition proteins. According to this Example, six different quantities (from 200 pmol to 6 pmol) of Ptdlns(3,4)P2, Ptdlns(3,5)P2, Ptdlns(4,5)P2, Pea-PI(4,5)P2,Ptdlns(3,4,5)P3; Pea-PI(3,4,5P)3 PI and PE were spotted onto nitrocellulose, and binding of Glutathione S-Transferase (GST)-PLC δ1-PH and GST-General Receptor for Phosphoinositides (Grp1)-PH constructs was examined by a protein-overlay technique (described in Dowler, S., Kular, G., and Alessi, D. R. (2002) Sci STKE 2002, PL6) (recombinant GST tagged PLC δ1-PH and Grp1-PH domain proteins used in this Example were expressed in E. coli then purified using glutathione affinity resin (Amersham Biosciences, Piscataway, N.J.).

Another assay has as its target T2, GST-PLC δ1-PH domain (Homo sapiens, UniProt P51178).
T2 construct: made in house; host or cells: E. coli
T2 sequence (P51178 21-130 limits assumed): T1 sequence (P51178 21-130 limits assumed)
In words: AlphaScreen competitive binding, biotinylated Pea-PI(4,5)P2 as probe lipid. The procedure: In addition, competitive binding assays were conducted in which the GST-PLC δ1-PH protein was pre-incubated for 30 min with 10 nM to 10 fM of unlabeled diC4 Ptdlns(4,5)P2, Ptdlns(3,4,5)P3, or Pea-PI(4,5)P2 prior to addition of the other reagents, using biotinylated Pea-PI(4,5)P2 as the probe lipid.
These competitive binding experiments were similar to the binding experiment described above except that non biotinylated lipids are added to each reaction to compete with biotinylated Pea-PI(4,5)P2 for binding to PLC-δ 1-PH domain. For example, eight concentrations of PI(3,4,5)P3 diC4, PI(4,5)P2 diC4, and Pea-PI(4,5)P2 were added as competitors to separate wells in addition to 0.2 pmol/well PLC-δ-1-PH domain, 0.4 pmol/well of Pea-PI(4,5)P2, streptavidin donor, and anti-GST acceptor beads; and incubated as previously described. […] This 500 times better affinity of Pea-PI(4,5)P2 for PLC d1-PH domain compared to PI(3,4,5)P3 is fundamental to the development of a robust assay where one detects the specific PIPn product of a kinase or phosphatase in the presence of excess PIPn substrate.

The next assay concerns anti-PIP3 antibody. Briefly: Antibody binding to lipids covalently coupled to Maleic-Anhydride activated 96-well plate. Particulars: 50 pmol per well, absorbance at 450 nm. On the procedure: The ability of lipid recognition proteins to specifically recognize and bind to Pea-PIPns was tested by coupling Pea-PIPns (as well as amino PIPs with the same headgroups as controls) to polystyrene microtiter plates. Briefly, 50 pmol per well of amino PI(4,5)P2 (PIP2), amino PI(3,4,5)P3 (PIP3), Pea-PI(4,5)P2 (Pea-PIP2), and Pea-PI(3,4,5)P3 (Pea-PIP3) lipids in 100 μL PBS were coupled via their primary amine functional groups to triplicate wells of a Maleic-Anhydride activated 96-well plate (Pierce, Rockford, Ill.). Underivatized groups were reacted with 200 μL Tris-Glycine-SDS overnight before blocking with 200 μL 0.02% Ovalbumin in TBS. […] Specific binding was subsequently visualized by incubating with anti-mouse-HRP (horseradish peroxidase) secondary antibody (Sigma, St Louis, Mo.), washing as before, then adding tetramethylbenzadine (TMB) developing reagent (Sigma) and reading the absorbance at 450 nm in a plate reader.
Binding specificity of Pea-PIPs was further tested by coupling Pea-PIP2 and Pea-PIP3 (as well as amino PIPs with the same headgroups as controls) to polystyrene microtiter plates. […] Specific binding was subsequently visualized by incubating with anti-mouse-HRP secondary antibody (Sigma, St Louis, Mo.), washing as before, then adding Tetramethylbenzadine (TMB) developing reagent (Sigma) and reading the absorbance at 450 nm in a plate reader.

The mark [1] stands for this setting: protein pre-incubated 30 min with 10 nM to 10 fM competitor.

For orientation: IC50 means the point on the concentration scale where inhibition reaches its midpoint. Take `CCCCCCCCCCCCCCCC(=O)O[C@H](COP(=O)(O)OCCN)[C@@H](COP(=O)(O)O[C@@H]1[C@H](O)[C@H](O)[C@@H](OP(=O)(O)O)[C@H](OP(=O)(O)O)[C@H]1O)OC(=O)CCCCCCCCCCCCCCC` [Pea-PI(4,5)P2, 1-[(2R,3R)-4-(2-Aminoethoxyphosphoryloxy)-2,3-di-O-palmitoylbutoxyphosphoryloxy]-4,5-myo-bisphosphate]: the “recognition by GST-PLC δ1-PH” value on GST-PLC δ1-PH was “able to bind the correct protein at lower concentrations than the corresponding diC16 phosphoinositides”. The concentration for half-maximal inhibition (IC50) on GST-PLC δ1-PH domain (0.2 pmol/well PLC-δ-1-PH domain, 0.4 pmol/well probe lipid, read-out: IC50 value as competitor) came out at 0.14 µM. For the same compound, the “binding to the PH domain as unlabeled competitor” value at GST-PLC δ1-PH domain (setting [1]) is listed as “further increase in binding”. The “better affinity for PLC d1-PH domain compared to PI(3,4,5)P3” value at GST-PLC δ1-PH domain (ratio of IC50 values) came out at 500 times. Also, in the assay on anti-PIP3 antibody, the “recognition by anti-PIP3 antibody” value was “(but not Pea-PIP2) was recognized by the specific antibody”.
In the case of `CCCC(=O)OCC(COP(=O)(O)OC1C(O)C(O)C(OP(=O)(O)O)C(OP(=O)(O)O)C1O)OC(=O)CCC` (stereo not drawn) [di-C4 Ptdlns(4,5)P2, reference compound], the “selectivity for displacement of GST-PLC δ1-PH, relative to di-C4 Ptdlns(3,4,5)P3” value on GST-PLC δ1-PH domain (setting [1]) is “Over 100 fold”.
